The values that follow come from patent US20200002283A1, “PYRAZOLE DERIVATIVES HAVING ACTIVITY AGAINST PAIN” (priority 2016, published 2020).

The target of experiment [1] is Human α2δ-1 subunit of Cav2.2 calcium channel (Homo sapiens, UniProt P54289). Description: Human α2δ-1 subunit of Cav2.2 calcium channel assay ([3H]-Gabapentin binding). As for the experimental part: Human α2δ-1 Subunit of Cav2.2 Calcium Channel Assay
Human α2δ-1 enriched membranes (2.5 μg) were incubated with 15 nM of radiolabeled [3H]-Gabapentin in assay buffer containing Hepes-KOH 10 mM, pH 7.4. NSB (non specific binding) was measured by adding 10 μM pregabalin. After 60 min incubation at 27° C., binding reaction was terminated by filtering through Multiscreen GF/C (Millipore) presoaked in 0.5% polyethyleneimine in Vacuum Manifold Station, followed by 3 washes with ice-cold filtration buffer containing 50 mM Tris-HCl, pH 7.4. Filter plates were dried at 60° C. for 1 hour and 30 μl of scintillation cocktail were added to each well before radioactivity reading. Readings were performed in a Trilux 1450 Microbeta radioactive counter (Perkin Elmer).

The target in the next experiment is T1, human μ-opioid receptor (Homo sapiens, UniProt P35372).
T1 construct: expressed in transfected cells; host or cells: CHO-K1
Description: Human μ-opioid receptor radioligand assay ([3H]-DAMGO). The class given is binding. As for the experimental part:
Human μ-Opioid Receptor Radioligand Assay
To investigate binding properties of test compounds to human μ-opioid receptor, transfected CHO-K1 cell membranes and [^3H]-DAMGO (Perkin Elmer, ES-542-C), as the radioligand, were used. The assay was carried out with 20 μg of membrane suspension, 1 nM of [^3H]-DAMGO in either absence or presence of either buffer or 10 μM Naloxone for total and non-specific binding, respectively. Binding buffer contained Tris-HCl 50 mM, MgCl2 5 mM at pH 7.4. Plates were incubated at 27° C. for 60 minutes. After the incubation period, the reaction mix was then transferred to MultiScreen HTS, FC plates (Millipore), filtered and plates were washed 3 times with ice-cold 10 mM Tris-HCL (pH 7.4). Filters were dried and counted at approximately 40% efficiency in a MicroBeta scintillation counter (Perkin-Elmer) using EcoScint liquid scintillation cocktail.

The mark [2] stands for this setting: human α2δ-1 enriched membranes, 15 nM [3H]-Gabapentin, read-out: α2δ-1 binding.
Setting [3] is: transfected CHO-K1 cell membranes, 1 nM [3H]-DAMGO, read-out: μ binding.

The structures appear in SMILES notation. Read-outs that look alike come from different tables or passages of the source.

T1 sequence (P35372 whole entry): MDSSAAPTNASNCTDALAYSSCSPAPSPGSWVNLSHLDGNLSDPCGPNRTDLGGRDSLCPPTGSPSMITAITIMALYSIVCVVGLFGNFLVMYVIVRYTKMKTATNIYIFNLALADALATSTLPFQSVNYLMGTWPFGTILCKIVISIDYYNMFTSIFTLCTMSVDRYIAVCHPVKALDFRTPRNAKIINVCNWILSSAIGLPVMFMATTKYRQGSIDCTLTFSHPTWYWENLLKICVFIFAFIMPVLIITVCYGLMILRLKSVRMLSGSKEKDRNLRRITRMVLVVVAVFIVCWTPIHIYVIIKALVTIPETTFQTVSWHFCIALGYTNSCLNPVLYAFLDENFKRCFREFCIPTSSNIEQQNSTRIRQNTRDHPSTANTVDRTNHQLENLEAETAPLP
Sequence of Human α2δ-1 subunit of Cav2.2 calcium channel (P54289 25-1103): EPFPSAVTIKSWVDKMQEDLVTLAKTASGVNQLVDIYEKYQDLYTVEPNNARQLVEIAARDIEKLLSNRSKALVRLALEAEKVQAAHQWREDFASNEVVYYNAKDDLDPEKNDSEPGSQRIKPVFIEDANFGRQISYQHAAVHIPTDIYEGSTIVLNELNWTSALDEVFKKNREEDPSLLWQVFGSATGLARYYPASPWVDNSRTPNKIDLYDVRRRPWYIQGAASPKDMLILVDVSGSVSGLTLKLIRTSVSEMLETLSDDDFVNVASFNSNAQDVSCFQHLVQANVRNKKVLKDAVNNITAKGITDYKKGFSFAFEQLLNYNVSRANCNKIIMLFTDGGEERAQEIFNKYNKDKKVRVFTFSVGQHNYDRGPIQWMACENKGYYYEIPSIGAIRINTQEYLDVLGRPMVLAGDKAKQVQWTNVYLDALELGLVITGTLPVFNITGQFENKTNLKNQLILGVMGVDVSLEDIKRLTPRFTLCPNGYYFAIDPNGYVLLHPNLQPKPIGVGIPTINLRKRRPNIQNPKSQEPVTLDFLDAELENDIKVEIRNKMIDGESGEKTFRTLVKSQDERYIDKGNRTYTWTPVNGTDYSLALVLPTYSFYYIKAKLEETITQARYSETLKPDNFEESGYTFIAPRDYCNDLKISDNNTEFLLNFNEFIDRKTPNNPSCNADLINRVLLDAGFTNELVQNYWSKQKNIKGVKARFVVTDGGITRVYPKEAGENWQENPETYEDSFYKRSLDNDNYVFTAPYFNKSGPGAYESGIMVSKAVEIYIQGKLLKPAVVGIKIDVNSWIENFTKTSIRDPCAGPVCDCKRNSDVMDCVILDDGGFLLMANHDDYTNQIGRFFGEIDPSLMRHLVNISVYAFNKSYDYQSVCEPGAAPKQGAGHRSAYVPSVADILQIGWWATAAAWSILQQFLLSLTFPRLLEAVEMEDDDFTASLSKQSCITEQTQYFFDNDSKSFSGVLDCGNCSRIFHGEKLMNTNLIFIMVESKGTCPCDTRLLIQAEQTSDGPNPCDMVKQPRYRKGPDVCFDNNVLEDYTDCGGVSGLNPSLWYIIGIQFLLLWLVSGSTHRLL

Consider `CC(N)c1cc(Cc2ccc(O)c(F)c2)n(-c2ccc(Cl)cc2Cl)n1` (stereo in doubt) [Example 63, (S)-4-{[3-(1-Aminoethyl)-1-(2,4-dichlorophenyl)-1H-pyrazol-5-yl]methyl}-2-fluorophenol], for which the Ki in experiment [1] is greater than 5000 nM; at human μ-opioid receptor it was greater than 500 nM.

On to `CC(N)c1cc(Cc2ccc(O)c(F)c2)n(-c2ccc(Cl)cc2Cl)n1` (stereo in doubt) [Example 64, (R)-4-{[3-(1-Aminoethyl)-1-(2,4-dichlorophenyl)-1H-pyrazol-5-yl]methyl}-2-fluorophenol], for which the Ki is greater than 5000 nM in experiment [1] and greater than 500 nM at human μ-opioid receptor.

Regarding `COc1ccc(Cc2cc(CN)nn2-c2ccc(Cl)cc2Cl)cc1` [Example 1, [1-(2,4-Dichlorophenyl)-5-(4-methoxybenzyl)-1H-pyrazol-3yl]methanamine], the values for the Ki (in experiment [1]; on human μ-opioid receptor) were less than 500 nM and 100 to 500 nM, respectively.

On to `COc1ccc(Cc2cc(CN)nn2-c2ccccc2Cl)cc1` [Example 2, [1-(2-Chlorophenyl)-5-(4-methoxybenzyl)-1H-pyrazol-3-yl]methanamine], for which the Ki in experiment [1] (setting [2]) is 500 to 3000 nM; at human μ-opioid receptor (setting [3]), greater than 500 nM.

Take `COc1ccc(Cc2cc(CN)nn2-c2ccc(Cl)cc2)cc1` [Example 3, [1-(4-Chlorophenyl)-5-(4-methoxybenzyl)-1H-pyrazol-3-yl]methanamine]: the Ki in experiment [1] (setting [2]) was 3000 to 5000 nM; on human μ-opioid receptor (setting [3]) it was greater than 500 nM.

Regarding `COc1ccc(Cc2cc(CN)nn2-c2ccc(OC)cc2Cl)cc1` [Example 4, [1-(2-Chloro-4-methoxyphenyl)-5-(4-methoxybenzyl)-1H-pyrazol-3-yl]methanamine], the results for the Ki (in experiment [1]; on human μ-opioid receptor) were 500 to 3000 nM and 100 to 500 nM, respectively.

Turning to `COc1ccc(Cc2cc(CN)nn2-c2ccc(F)cc2Cl)cc1` [Example 5, [1-(2-Chloro-4-fluorophenyl)-5-(4-methoxybenzyl)-1H-pyrazol-3-yl]methanamine], the Ki in experiment [1] (setting [2]) was 500 to 3000 nM; on human μ-opioid receptor (setting [3]), greater than 500 nM.

For the compound `COc1ccc(-n2nc(CN)cc2Cc2ccc(O)cc2)cc1` [Example 6, 4-{[3-(Aminomethyl)-1-(4-methoxyphenyl)-1H-pyrazol-5-yl]methyl}phenol], the Ki was 3000 to 5000 nM in experiment [1] (setting [2]) and greater than 500 nM on human μ-opioid receptor (setting [3]).

With `CCOc1ccc(-n2nc(CN)cc2Cc2ccc(O)cc2)c(Cl)c1` [Example 7, 4-{[3-(Aminomethyl)-1-(2-chloro-4-ethoxyphenyl)-1H-pyrazol-5-yl]methyl}phenol], the values for the Ki (in experiment [1]; at human μ-opioid receptor) were 500 to 3000 nM and less than 100 nM, respectively.

For the compound `COc1cccc(Cc2cc(CN)nn2-c2ccc(Cl)cc2Cl)c1` [Example 8, [1-(2,4-Dichlorophenyl)-5-(3-methoxybenzyl)-1H-pyrazol-3-yl]methanamine], the Ki in experiment [1] (setting [2]) is 500 to 3000 nM; at human μ-opioid receptor (setting [3]), greater than 500 nM.

For the compound `NCc1cc(Cc2ccccc2)n(-c2ccc(Cl)cc2Cl)n1` [Example 9, [5-Benzyl-1-(2,4-dichlorophenyl)-1H-pyrazol-3-yl]methanamine], the Ki in experiment [1] (setting [2]) was 500 to 3000 nM; on human μ-opioid receptor (setting [3]), greater than 500 nM.

On to `COc1ccc(-n2nc(CN)cc2Cc2ccccc2)cc1` [Example 10, [5-Benzyl-1-(4-methoxyphenyl)-1H-pyrazol-3-yl]methanamine], for which the figures for the Ki (in experiment [1] (setting [2]); on human μ-opioid receptor (setting [3])) were 500 to 3000 nM and greater than 500 nM, respectively.

Turning to `COc1ccc(Cc2cc(CN)nn2CC(C)C)cc1` [Example 11, [1-Isobutyl-5-(4-methoxybenzyl)-1H-pyrazol-3-yl]methanamine], the Ki was 500 to 3000 nM in experiment [1] (setting [2]) and greater than 500 nM on human μ-opioid receptor (setting [3]).

For `COc1ccc(Cc2cc(CN)nn2Cc2ccc(Cl)cc2)cc1` [Example 12, [1-(4-Chlorobenzyl)-5-(4-methoxybenzyl)-1H-pyrazol-3-yl]methanamine], the Ki in experiment [1] (setting [2]) was 500 to 3000 nM; at human μ-opioid receptor (setting [3]), greater than 500 nM.

Take `COc1ccc(Cc2cc(CN)nn2Cc2ccccc2)cc1` [Example 13, [1-Benzyl-5-(4-methoxybenzyl)-1H-pyrazol-3-yl]methanamine]: the values for the Ki (in experiment [1] (setting [2]); at human μ-opioid receptor (setting [3])) were 500 to 3000 nM and greater than 500 nM, respectively.

Regarding `COc1ccc(Cc2cc(CN)nn2Cc2ccccc2Cl)cc1` [Example 14, [1-(2-Chlorobenzyl)-5-(4-methoxybenzyl)-1H-pyrazol-3-yl]methanamine], the Ki was 500 to 3000 nM in experiment [1] (setting [2]) and greater than 500 nM at human μ-opioid receptor (setting [3]).

Turning to `COc1ccc(Cc2cc(CN)nn2Cc2ccc(Cl)cc2Cl)cc1` [Example 15, [1-(2,4-Dichlorobenzyl)-5-(4-methoxybenzyl)-1H-pyrazol-3-yl]methanamine], the Ki in experiment [1] (setting [2]) is 500 to 3000 nM; at human μ-opioid receptor (setting [3]), greater than 500 nM.

For the compound `COc1ccc(Cc2cc(CN)nn2C(C)c2ccccc2)cc1` (stereo not drawn) [Example 16, [5-(4-Methoxybenzyl)-1-(1-phenylethyl)-1H-pyrazol-3-yl]methanamine], the values for the Ki (in experiment [1] (setting [2]); on human μ-opioid receptor (setting [3])) were 500 to 3000 nM and greater than 500 nM, respectively.

Regarding `COc1ccc(Oc2cc(CN)nn2-c2ccc(Cl)cc2Cl)cc1` [Example 17, [1-(2,4-Dichlorophenyl)-5-(4-methoxyphenoxy)-1H-pyrazol-3-yl]methanamine], the Ki fell in the range of 3000 to 5000 nM in experiment [1] and 100 to 500 nM at human μ-opioid receptor.

Turning to `CS(=O)(=O)Nc1ccc(Oc2cc(CN)nn2-c2ccc(Cl)cc2Cl)cc1` [Example 18, N-(4-{[3-(Aminomethyl)-1-(2,4-dichlorophenyl)-1H-pyrazol-5-yl]oxy}phenyl)methanesulfonamide], the figures for the Ki (in experiment [1] (setting [2]); at human μ-opioid receptor (setting [3])) were greater than 5000 nM and greater than 500 nM, respectively.

`COc1ccc(Cc2cc(CN)nn2-c2ccccc2)cc1` [Example 19, [5-(4-Methoxybenzyl)-1-phenyl-1H-pyrazol-3-yl]methanamine]: the results for the Ki (in experiment [1] (setting [2]); on human μ-opioid receptor (setting [3])) were 500 to 3000 nM and greater than 500 nM, respectively.

As to `COc1ccc(Cc2cc(CN)nn2-c2ccccn2)cc1` [Example 20, [5-(4-Methoxybenzyl)-1-(pyridin-2-yl)-1H-pyrazol-3-yl]methanamine], the results for the Ki (in experiment [1] (setting [2]); on human μ-opioid receptor (setting [3])) were 3000 to 5000 nM and greater than 500 nM, respectively.

Regarding `COc1ccc(Cc2cc(CN(C)C)nn2-c2ccc(Cl)cc2Cl)cc1` [Example 21, 1-[1-(2,4-Dichlorophenyl)-5-(4-methoxybenzyl)-1H-pyrazol-3-yl]-N,N-dimethylmethanamine], the Ki in experiment [1] (setting [2]) was 3000 to 5000 nM; on human μ-opioid receptor (setting [3]) it was greater than 500 nM.

Consider `CNCc1cc(Cc2ccc(OC)cc2)n(-c2ccc(Cl)cc2Cl)n1` [Example 22, 1-[1-{2,4-Dichlorophenyl)-5-(4-methoxybenzyl)-1H-pyrazol-3-yl]-N-methylmethanamine], for which the Ki in experiment [1] (setting [2]) was 3000 to 5000 nM; at human μ-opioid receptor (setting [3]), greater than 500 nM.

Take `CCNCc1cc(Cc2ccc(OC)cc2)n(CC(C)C)n1` [Example 23, N-{[1-Isobutyl-5-(4-methoxybenzyl)-1H-pyrazol-3-yl]methyl}ethanamine]: the Ki was 500 to 3000 nM in experiment [1] (setting [2]) and greater than 500 nM at human μ-opioid receptor (setting [3]).

Consider `COc1ccc(Cc2cc(C(C)N)nn2-c2ccc(Cl)cc2Cl)cc1` (stereo not drawn) [Example 24, 1-[1-(2,4-Dichlorophenyl)-5-(4-methoxybenzyl)-1H-pyrazol-3-yl]ethanamine], for which the Ki in experiment [1] is 500 to 3000 nM; on human μ-opioid receptor, 100 to 500 nM.

As for `CCOc1ccc(Cc2cc(C(C)N)nn2-c2ccc(Cl)cc2Cl)cc1` (stereo not drawn) [Example 25, 1-[1-(2,4-Dichlorophenyl)-5-(4-ethoxybenzyl)-1H-pyrazol-3-yl]ethanamine], the Ki in experiment [1] (setting [2]) was 500 to 3000 nM; at human μ-opioid receptor (setting [3]) it was greater than 500 nM.

For `CC(N)c1cc(Cc2ccc(NS(C)(=O)=O)cc2)n(-c2ccc(Cl)cc2Cl)n1` (stereo not drawn) [Example 26, N-(4-{[3-(1-Aminoethyl)-1-(2,4-dichlorophenyl)-1H-pyrazol-5-yl]methyl}phenyl)methanesulfonamide], the Ki in experiment [1] (setting [2]) is 500 to 3000 nM; at human μ-opioid receptor (setting [3]), greater than 500 nM.

For the compound `COc1ccc(-n2nc(C(C)N)cc2Cc2ccc(O)cc2)c(Cl)c1` (stereo not drawn) [Example 27, 4-{[3-(1-Aminoethyl)-1-(2-chloro-4-methoxyphenyl)-1H-pyrazol-5-yl]methyl}phenol], the Ki in experiment [1] is less than 500 nM; at human μ-opioid receptor, less than 100 nM.

For `COc1ccc(Cl)c(-n2nc(C(C)N)cc2Cc2ccc(O)cc2)c1` (stereo not drawn) [Example 28, 4-{[3-(1-Aminoethyl)-1-(2-chloro-5-methoxyphenyl)-1H-pyrazol-5-yl]methyl}phenol], the figures for the Ki (in experiment [1] (setting [2]); on human μ-opioid receptor (setting [3])) were greater than 5000 nM and greater than 500 nM, respectively.

For the compound `COc1cc(Cl)ccc1-n1nc(C(C)N)cc1Cc1ccc(O)cc1` (stereo not drawn) [Example 29, 4-{[3-(1-Aminoethyl)-1-(4-chloro-2-methoxyphenyl)-1H-pyrazol-5-yl]methyl}phenol], the values for the Ki (in experiment [1] (setting [2]); on human μ-opioid receptor (setting [3])) were greater than 5000 nM and greater than 500 nM, respectively.

Regarding `COc1ccc(Cc2cc(C(C)N)nn2-c2ccc(Cl)cc2Cl)cc1F` (stereo not drawn) [Example 30], the Ki in experiment [1] (setting [2]) is greater than 5000 nM; on human μ-opioid receptor (setting [3]), greater than 500 nM.

On to `CCCC(N)c1cc(Cc2ccc(OC)c(F)c2)n(-c2ccc(Cl)cc2Cl)n1` (stereo not drawn) [Example 31, 1-[1-(2,4-Dichlorophenyl)-5-(3-fluoro-4-methoxybenzyl)-1H-pyrazol-3-yl]butan-1-amine], for which the values for the Ki (in experiment [1] (setting [2]); at human μ-opioid receptor (setting [3])) were greater than 5000 nM and greater than 500 nM, respectively.
